Results published in the supplement of paper PMC6580486.

System: U23674 (mouse alveolar rhabdomyosarcoma primary culture)
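Also: alveolar rhabdomyosarcoma tumor culture.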

## CCOc1ccc2c(-c3ccnc(Nc4cc(OC)cc(C(F)(F)F)c4)n3)cnn2n1
  IC50 cell viability: > 10 µM

## c1ccc(-c2[nH]ncc2-c2ccnc(-c3ccc(OCCn4ccnc4)cc3)c2)nc1
  IC50 cell viability: > 10 µM

## Fc1ccc(-c2cc(-c3cn[nH]c3-c3ccccn3)ccn2)cc1
  IC50 cell viability: > 10 µM

## COc1cc2ncn(-c3cc(O[C@@H](C)c4ccccc4Cl)c(C(N)=O)s3)c2cc1OC
  IC50 cell viability: > 10 µM

## CN(c1ccc(NC(=O)Nc2c(Cl)cccc2Cl)cc1)c1ccnc(Nc2cccc(CS(C)(=O)=O)c2)n1
  IC50 cell viability: > 10 µM

## Cc1nn(C)c2cc(N(C)c3ccnc(Nc4cccc(S(N)(=O)=O)c4)n3)ccc12
  IC50 cell viability: > 10 µM

## COc1ccc(-c2ccc3c(NC(=O)C4CC4)n[nH]c3n2)cc1
  IC50 cell viability: > 10 µM

## CC1=C(C(=O)Nc2cc(Cl)c3[nH]ncc3c2)C(c2ccc(C(F)(F)F)cc2)CC(=O)N1 (stereo not given)
  IC50 cell viability: > 10 µM

## NS(=O)(=O)c1cccc(Nc2cc(-c3ccc(F)cc3)[nH]n2)c1
  IC50 cell viability: > 10 µM

## CCn1c(-c2nonc2N)nc2c(N3CCCC3)nccc21
  IC50 cell viability: > 10 µM

## CCCNc1cccc(-n2ncc3c(N/N=C/c4ccncc4)ncnc32)c1
  IC50 cell viability: > 10 µM

## NC(=O)c1ccc2c(-c3ccnc(NCCCO)n3)c(-c3ccc(F)cc3)nn2c1
  IC50 cell viability: > 10 µM

## CCCN1CCC(c2ccc(Nc3nc(Nc4cc(F)ccc4C(N)=O)c4cc[nH]c4n3)c(OC)c2)CC1
  IC50 cell viability: > 10 µM

## Fc1ccc(-c2ncn(CCCN3CCOCC3)c2-c2ccncc2)cc1
  IC50 cell viability: > 10 µM

## CCOc1nccc2c1nc(-c1nonc1N)n2CC
  IC50 cell viability: > 10 µM

## CCn1c(-c2nonc2N)nc2cnc(Oc3cccc(NC(=O)c4ccc(N(C)C)cc4)c3)cc21
  IC50 cell viability: > 10 µM

## NC(=O)c1cc(-c2ccc(F)cc2)cc(-c2ccncc2)c1N
  IC50 cell viability: > 10 µM

## COC(=O)Nc1nc2ccc(Oc3ccc(NC(=O)Nc4cc(C(F)(F)F)ccc4F)cc3)cc2s1
  IC50 cell viability: > 10 µM

## O=C1NC(=O)C(c2cccc(Cl)c2)=C1Nc1ccc(Cl)c(C(=O)O)c1
  IC50 cell viability: > 10 µM

## Cc1ccc2c(-c3ccnc(Nc4ccc5c(c4)OCCO5)n3)c(-c3ccc(C(F)(F)F)cc3)nn2n1
  IC50 cell viability: > 10 µM

## COC(=O)Nc1nc2ccc(Oc3ccc(NC(=O)Nc4ccccc4)cc3)cc2[nH]1
  IC50 cell viability: > 10 µM

## N#Cc1c(NC(=O)c2cccc3ccccc23)sc2c1CCCC2
  IC50 cell viability: 3.5 µM

## CCn1c(-c2nonc2N)nc2c(C#CC(C)(C)O)ncc(OCC3CCCN3)c21 (stereo not given)
  IC50 cell viability: 5.2 µM

## CC1(C)CC(n2cnc(-c3ccc(F)cc3)c2-c2ccnc(N)n2)CC(C)(C)N1
  IC50 cell viability: 0.2 µM

## CNC(=O)c1ncccc1Nc1nc(Nc2cc3c(cc2OC)CCCN3C(=O)CN(C)C)nc2[nH]ccc12
  IC50 cell viability: > 10 µM

## COc1cc2ncn(-c3cc(OCc4ccccc4C(F)(F)F)c(C(N)=O)s3)c2cc1OC
  IC50 cell viability: > 10 µM

## O=C(Nc1n[nH]c2cc(-c3cc(F)ccc3F)ccc12)C1CC1
  IC50 cell viability: > 10 µM

## Cc1nnc(-c2ccc(C)c(-c3ccc(C(=O)NCc4ccc(Cl)cc4)cc3)c2)o1
  IC50 cell viability: > 10 µM

## CC1=C(C(=O)Nc2ccc3n[nH]c(C)c3c2)C(c2ccc(C(F)(F)F)cc2)CC(=O)N1 (stereo not given)
  IC50 cell viability: > 10 µM

## COc1cccc(-c2c[nH]c3c(N/N=C/c4ccncc4)ncnc23)c1
  IC50 cell viability: > 10 µM

## Fc1cccc(COc2ccc(Nc3ncnc4sc(-c5ccco5)cc34)cc2Cl)c1
  IC50 cell viability: > 10 µM

## CS(=O)(=O)CCNCc1ccc(-c2ccc3ncnc(Nc4ccc(OCc5ccccc5)cc4)c3c2)o1
  IC50 cell viability: > 10 µM

## C[C@@H](Oc1cc(-n2cnc3ccc(OCC4CCN(C)CC4)cc32)sc1C(N)=O)c1ccccc1C(F)(F)F
  IC50 cell viability: 0.1 µM

## NS(=O)(=O)c1ccc(N=Cc2c(O)[nH]c3ccc4ncsc4c23)cc1
  IC50 cell viability: > 10 µM

## O=C(O[C@H]1CN[C@H](C#Cc2cc3ncnc(Nc4ccc(Cc5ccccc5)cc4)c3s2)C1)N1CCOCC1
  IC50 cell viability: > 10 µM

## NS(=O)(=O)c1ccc(-c2ccc3c(NC(=O)C4CC4)n[nH]c3c2)cc1
  IC50 cell viability: > 10 µM

## COc1cccc(Nc2nccc(-c3cnn4ncccc34)n2)c1
  IC50 cell viability: 0.01 µM

## Cc1ccc(NC(=O)c2ccoc2)cc1-c1ccc(C(=O)NCC2CC2)cc1
  IC50 cell viability: > 10 µM

## O=C(OC1CNC(C#Cc2cc3ncnc(Nc4ccc5c(ccn5Cc5cc(F)ccc5F)c4)c3s2)C1)N1CCOCC1 (stereo not given)
  IC50 cell viability: > 10 µM

## COc1ccc2cc(-c3c(-c4ccncc4)nc(-c4ccc([S+](C)[O-])cc4C)n3C)ccc2c1 (stereo not given)
  IC50 cell viability: > 10 µM

## COc1cc(Nc2ncc(-c3ccccc3)o2)cc(OC)c1OC
  IC50 cell viability: > 10 µM

## CCn1c(-c2nonc2N)nc2cncc(C(=O)NCCNC)c21
  IC50 cell viability: > 10 µM

## NC(=O)c1sc(-n2cnc3ccccc32)cc1OCc1ccccc1Br
  IC50 cell viability: > 10 µM

## Cc1cc(-c2ccccn2)cc(C)c1/C=C/c1cncc(-c2nn[nH]n2)c1
  IC50 cell viability: > 10 µM

## COC(=O)c1sc(-n2cnc3cc(OC)c(OC)cc32)cc1OCc1ccccc1C(F)(F)F
  IC50 cell viability: > 10 µM

## Fc1ccc(-c2nc3n(c2-c2ccncc2)CCS3)cc1
  IC50 cell viability: > 10 µM

## Cc1ccc(NC(=O)CC2CC2)cc1-c1ccc(C(=O)NCC2CC2)cc1
  IC50 cell viability: 3.4 µM

## CCC(=O)Nc1ccc(C)c(-c2ccc(C(=O)NCC3CC3)cc2)c1
  IC50 cell viability: > 10 µM

## Nc1nonc1-c1nc2cnccc2n1C1CC1
  IC50 cell viability: > 10 µM

## CCc1nn2ncccc2c1-c1ccnc(NC2CC2)n1
  IC50 cell viability: > 10 µM

## COC(=O)Nc1nc2ccc(Sc3ccc(NC(=O)Nc4cc(C(F)(F)F)ccc4F)cc3)cc2[nH]1
  IC50 cell viability: > 10 µM

## CCn1c(-c2nonc2N)nc2ccc(F)cc21
  IC50 cell viability: > 10 µM

## Cc1cc(O)cc(C)c1/C=C/c1cncc(C(=O)N(C)C)c1
  IC50 cell viability: > 10 µM

## NC(=O)c1cccc(Nc2nccc(Nc3cccc4[nH]ncc34)n2)c1
  IC50 cell viability: > 10 µM

## CCN(CC)S(=O)(=O)c1ccc(OC)c(Nc2ncc(-c3ccccc3)o2)c1
  IC50 cell viability: > 10 µM

## c1ccc(COc2ccc(Nc3ncnc4ccc(-c5ccco5)cc34)cc2)cc1
  IC50 cell viability: > 10 µM

## CC(=O)Nc1cccc(C#Cc2cncnc2Nc2ccc(OCc3cccc(F)c3)c(Cl)c2)c1
  IC50 cell viability: > 10 µM

## CCn1c(-c2nonc2N)nc2c(C#CC(C)(C)O)nc(OC[C@H](N)c3ccccc3)cc21
  IC50 cell viability: 1.6 µM

## CNC(=O)c1cncc(/C=C/c2c(Cl)cccc2Cl)c1
  IC50 cell viability: > 10 µM

## Nc1ccc(C#Cc2cncnc2Nc2ccc(OCc3cccc(F)c3)c(Cl)c2)cc1
  IC50 cell viability: > 10 µM

## CCc1nccc2c1nc(-c1nonc1N)n2CC
  IC50 cell viability: > 10 µM

## CS(=O)(=O)CCNCc1nc(-c2ccc3ncnc(Nc4ccc(F)c(Cl)c4)c3c2)cs1
  IC50 cell viability: > 10 µM

## CCS(=O)(=O)c1ccc(OC)c(Nc2nccc(N(C)c3ccc4c(C)[nH]nc4c3)n2)c1
  IC50 cell viability: > 10 µM

## COc1ccc(-c2nn3ncccc3c2-c2ccnc(Nc3ccc(Cl)c(C(F)(F)F)c3)n2)cc1
  IC50 cell viability: > 10 µM

## C#Cc1cccc(Nc2ncnc3ccc(OCCCCNCCS(C)(=O)=O)cc23)c1
  IC50 cell viability: 4.9 µM

## N#Cc1cccc(Nc2nccc(-c3cnn4ncccc34)n2)c1
  IC50 cell viability: 0.05 µM

## CC1=C(C(=O)Nc2ccc3[nH]ncc3c2)C(c2ccc3ccccc3c2)CC(=O)N1 (stereo not given)
  IC50 cell viability: > 10 µM

## CCn1c(-c2nonc2N)nc2c(C#CC(C)(C)O)nc(OC[C@@H](N)c3ccccc3)cc21
  IC50 cell viability: > 10 µM

## COc1cc(/C=N/Nc2ncnc3[nH]ncc23)ccc1O
  IC50 cell viability: > 10 µM

## O=C1Nc2ccc(-c3cccnc3)cc2C1=Cc1cc(Br)c(O)c(Br)c1
  IC50 cell viability: > 10 µM
